Marks after values point to notes of the source that are not given here.
What was measured:
[1] = test system: oxidized LDL in the vascular wall; experiment: Vascular damage in carotids: oxidized LDL in the vascular wall (MDA2 antibody immunohistochemistry); format: in vivo, SP-SHR rats; settings: control = 0
Procedure: Evaluation of the Vascular Damage in Animals Treated With NO-ASA and Aspirin
In this experiment SP-SHR rats were used, as in the previous Example.
Three groups, each formed by 12 SP-SHR rats, 8 weeks old at the beginning of the experiment, received respectively for 6 weeks, together with the daily diet Aspirin (54 mg/kg) NO-ASA (30 mg/kg) (two groups); the control group (third group) received only the diet.
At the end of the treatment the animals were sacrificed by decapitation and the carotids were isolated. The ducts were opened and washed with cold sterile buffer phosphate (PBS) containing EDTA (2 mM) and maintained in cold PBS (cooled in ice bath) containing 2, [6]-di-tert-butyl-p-cresol (50 μM), aprotin (0.001%), EDTA (50 mM) and chloramphenicol (0.008%). The arteries were fixed with formalin (10%), then soaked in paraffin and then dissected. An aliquot of the obtained sections was incubated with MDA2 antibodies, which are directed against specific epitopes for oxidized LDL.
The data were calculated by considering the number of the sections, positive at the immunohistochemical test with MDA2 antibodies, detected in the groups of the treated animals and in the control group, respectively. The results are expressed as percentage of reduction of the oxidized LDL (low density lipoprotein) presence in the vascular wall taking as 0 the LDL value measured in the control group.

[2] = test system: SP-SHR rats (Stroke-Prone Spontaneously Hypertension Rats); experiment: Mortality/survival in SP-SHR rats under chronic treatment for 16 weeks; format: in vivo; settings: controls 0
Text: Evaluation of the Mortality in SP-SHR Rats (Stroke-Prone Spontaneously Hypertension Rats) Treated With 2-acetyloxybenzoic acid (6-nitrooxymethyl)-2-methylpyridinyl hydrochloride ester (Formula XV), (NO-ASA) and Aspirin.
In this experiment SP-SHR rats were used which develop a severe hypertension, with a high incidence of spontaneous cerebral infarct. […] (Yamori Y. et al. Stroke 1976; 7: 46-53).
Three groups each formed by 12 SP-SHR rats, 8 weeks old at the beginning of the experiment, received for 16 weeks together with the daily diet Aspirin (54 mg/kg) NO-ASA (30 mg/kg); the control group received only the diet.
During the period of chronic treatment the percentage of animal survival was evaluated.

[3] = test system: restenosis experimentally caused by balloon angioplasty; experiment: Restenosis induced in rats by balloon angioplasty (neointima/middle tunica thickness ratio); format: in vivo, Male Wistar rats; settings: for Restenosis %: 14 days after vascular damage, control = 100; for formation of the neointima tunica in the vascular wall / restenosis (in words): summary of Table 1, NO-aspirin low doses, Aspirin high doses
Procedure: Efficacy of Aspirin and of 2-acetyloxybenzoic acid (3-nitrooxymethyl)phenyl ester (Formula XI), in an Experimental Model of Restenosis Induced in Rats
Male Wistar rats weighing 300-350 g were anaesthetized by intraperitoneal injection of ketamine (100 mg/kg) and xylazine (5 mg/kg) and subjected to angioplasty according to the procedure described by Indolfi et Al., Circulation, 1995, 92, 1230-1235, by using a little balloon catheter which was first introduced in the aortic arch through the right carotid, then swollen and then let pass three times forth and back in the duct lumen.
(§1) The rats were divided in the indicated groups (n. 12 animals each) and subjected to pharmacological treatment as described hereunder for the 14 days following the vascular damage. The compounds, dissolved in polyethylenglycol (PEG 400) were administered by os by gastric probe according to the following scheme:
2 groups received NO-Aspirin at the dose of 30 and 100 mg/kg, respectively,
2 groups received Aspirin at the dose of 16 and 54 mg/kg, respectively,
1 group received NO-Ketorolac at the dose of 10 mg/Kg,
1 group received Ketorolac at the dose of 5 mg/Kg,
the control group received only the carrier (PEG 400, 0.2 ml/rat).
At the end of the treatment the animals were anaesthetized as described above and the carotids were first washed by infusion, through the left ventricle, of saline buffer phosphate (PBS, pH 7,2, 100 ml) then fixed with PBS containing paraformaldehyde (4%).
(§2) The animals were sacrificed and the carotids removed. For each artery n. 6 sections having a thickness of 6 μm were isolated. Stomachs were removed and inspected for damages of the gastric mucosa, determining the areas of both bleeding lesions and non bleeding lesions. Said lesions were evaluated by a score according to known methods.
3 of the 6 sections of each artery were stained with hematoxylin and eosin to evidence different types of cells, the remaining 3 sections were stained first with aldehyde fuchsin and then with the Gieson solution to evidence the internal elastic lamina (IEL). The sections were photographed and the imagines were analyzed by an image analysis system (Qwin Lite, Leica, Milan).
The thicknesses respectively of the middle and neointima tunica, and of the duct wall were measured. The results reported in Table 1 are expressed as percentage of restenosis and have been calculated as a ratio between the thickness of the neointima tunica and that of the middle tunica […] measured in the sections obtained from the groups, assuming equal to 100 the N/M ratio of the control group.

gastric mucosa = experiment: Damages to the gastric mucosa (lesion score) in the rats of the restenosis model; format: in vivo, Male Wistar rats; settings: for Gastric damage Score: control score 2
Procedure: as §1, §2

[4] = 30 mg/kg/die with the daily diet
[5] = 54 mg/kg/die with the daily diet

In the case of CC(=O)Oc1ccccc1C(=O)OCc1cccc(CO[N+](=O)[O-])n1.Cl [NO-ASA, 2-(acetyloxy)benzoic acid, 6-(nitrooxymethyl)-2-methyl pyridinyl hydrochloride ester], the “reduction % of the presence of oxidized LDL” value ([1]; 30 mg/kg with the daily diet for 6 weeks) is reported as 74%, the “% of survival, XVIth week” value [2, 4] is reported as 100% and the “% of survival, Xth week” value [2, 4] is reported as 100%.

For CC(=O)Oc1ccccc1C(=O)Oc1cccc(CO[N+](=O)[O-])c1 [NO-Aspirin, 2-(acetyloxy)benzoic acid 3-(nitrooxymethyl)phenyl ester], the Restenosis % ([3]; 30 mg/Kg by os) was 62.5* %, the Restenosis % ([3]; 100 mg/Kg by os) was 31* % and the “formation of the neointima tunica in the vascular wall / restenosis (in words)” value [3] was “already significantly reduced”. For the same compound, the “Gastric damage Score” value (gastric mucosa; Dose 166 mg/Kg) was 2 and the “Gastric damage Score” value (gastric mucosa; Dose 249 mg/Kg) was 4.

O=C(c1ccccc1)c1ccc2n1CCC2C(=O)O (centres unmarked) [Ketorolac, ketorolac] was tested, and the Restenosis % ([3]; 5 mg/Kg by os) was 100% and the “Gastric damage Score” value (gastric mucosa; Dose 5 mg/Kg) was 50.

With CC(=O)Oc1ccccc1C(=O)O [Aspirin, aspirin] the Restenosis % ([3]; 16 mg/Kg by os) was 100%, the Restenosis % ([3]; 54 mg/Kg by os) was 55* % and the “formation of the neointima tunica in the vascular wall / restenosis (in words)” value [3] was “small reduction of the restenosis”. The “reduction % of the presence of oxidized LDL” value ([1]; 54 mg/kg with the daily diet for 6 weeks) was 19%, the “% of survival, XVIth week” value [2, 5] was 50% and the “% of survival, Xth week” value [2, 5] was 100%. For the same compound, the “Gastric damage Score” value (gastric mucosa; Dose 50 mg/Kg) was 22*, the “Gastric damage Score” value (gastric mucosa; Dose 100 mg/Kg) was 42* and the “gastric toxicity / lesions to the gastric mucosa (in words)” value (gastric mucosa; rat, in vivo) was “produce lesions to the gastric mucosa”.

O=C(c1ccccc1)c1ccc2n1CCC2C(=O)OCCCCO[N+](=O)[O-] (centres unmarked) [NO Ketorolac, 5-benzoyl-2,3-dihydro-1H-pyrrolizin-1-carboxylic acid (4-nitrooxy)butyl ester] was tested, and the Restenosis % ([3]; 10 mg/Kg by os) was 90%, the “formation of the neointima tunica in the vascular wall / restenosis (in words)” value [3] was “not very effective” and the “Gastric damage Score” value (gastric mucosa; Dose 10 mg/Kg) was 20. The “gastric toxicity / lesions to the gastric mucosa (in words)” value (gastric mucosa; summary of Table 1, Aspirin high doses) was “shows a gastric toxicity”.

Source: US20040171592A1, “Organic nitrate-based compounds for the treatment of vasculopathies” (priority 2001, published 2004)
